{"source": "EPA's ToxValDB 9.5 (doi:10.2903/j.efsa.2009.310r)", "key": {"Coturnix coturnix": {"system": "Coturnix coturnix", "settings": "acute, oral, mortality"}, "Phasianus sp.": {"system": "Phasianus sp.", "settings": "acute, oral, unspecified, mortality"}, "Folsomia candida": {"system": "Folsomia candida", "settings": "chronic/long-term; duration: 28 days"}, "Rattus norvegicus": {"system": "Rattus norvegicus", "settings": "mortality"}, "Ceriodaphnia dubia": {"system": "Ceriodaphnia dubia", "settings": "chronic/long-term; duration: 7 days; reproduction"}, "Colinus virginianus": {"system": "Colinus virginianus", "settings": "acute, oral, mortality; for LC50: diet"}, "Apis mellifera": {"system": "Apis mellifera", "settings": "acute; dermal; mortality"}, "Anas platyrhynchos [1]": {"system": "Anas platyrhynchos", "settings": "oral, mortality; for LD50: acute, unspecified; for LC50: short-term, feed"}, "Bibionidae": {"system": "Bibionidae", "settings": "chronic/long-term; duration: 28 days"}, "Lepomis macrochirus": {"system": "Lepomis macrochirus", "settings": "acute; duration: 96 hours; mortality"}, "Hypoaspis aculeifer": {"system": "Hypoaspis aculeifer", "settings": "chronic/long-term; duration: 28 days"}, "Anas platyrhynchos [2]": {"system": "Anas platyrhynchos", "assay": "LC10; higher = less toxic", "settings": "short-term; duration: 14 days; oral; feed; mortality"}}, "note": "Values joined by “and” are separate entries in the source; they are usually repeats but may differ in a detail not shown here. Identical values can stand only once.", "data": [{"compound": "CNC(=O)Oc1cccc2c1OC(C)(C)C2", "note": "[Carbofuran]", "values": [{"measurement": "LD50", "setting": "Coturnix coturnix; F", "value": 3.5, "unit": "mg/kg-day"}, {"measurement": "LD50", "setting": "Coturnix coturnix; M", "value": 4.9, "unit": "mg/kg-day"}, {"measurement": "LD50", "setting": "Phasianus sp.; F", "value": 6.2, "unit": "mg/kg-day"}, {"measurement": "LD50", "setting": "Phasianus sp.; M", "value": 4, "unit": "mg/kg-day"}, {"measurement": "NOEC", "setting": "Folsomia candida", "value": 0.21, "unit": "mg/kg"}, {"measurement": "LD50", "setting": "Rattus norvegicus; acute, oral", "value": "< 5.6", "unit": "mg/kg-day"}, {"measurement": "NOAEL", "setting": "Rattus norvegicus; chronic", "value": 0.1, "unit": "mg/kg-day"}, {"measurement": "NOEC", "setting": "Ceriodaphnia dubia", "value": 0.00016, "unit": "mg/L"}, {"measurement": "LC50", "setting": "Colinus virginianus; duration: 5 days", "value": 114, "unit": "mg/kg-day"}, {"measurement": "LC50", "setting": "Colinus virginianus; duration: 7 days", "value": 20.8, "unit": "mg/kg-day"}, {"measurement": "LC50", "setting": "Colinus virginianus; duration: 14 days", "value": 15.8, "unit": "mg/kg-day"}, {"measurement": "LD50", "setting": "Colinus virginianus; M/F", "value": 8, "unit": "mg/kg-day"}, {"measurement": "LD50", "setting": "Apis mellifera", "value": 0.0357, "unit": "µg/piece"}, {"measurement": "LD50", "setting": "Anas platyrhynchos [1]; F", "value": 0.86, "unit": "mg/kg-day"}, {"measurement": "LD50", "setting": "Anas platyrhynchos [1]", "value": 0.76, "unit": "mg/kg-day"}, {"measurement": "LC50", "setting": "Anas platyrhynchos [1]; duration: 5 days", "value": "10 mg/kg-day and 17 mg/kg-day"}, {"measurement": "LC50", "setting": "Anas platyrhynchos [1]; duration: 14 days", "value": 1.6, "unit": "mg/kg-day"}, {"measurement": "LC50", "setting": "Tagia sp.; acute, duration: 14 days, mortality", "value": "> 50", "unit": "mg/kg"}, {"measurement": "NOEC", "setting": "Tagia sp.; chronic/long-term, duration: 56 days", "value": "< 0.84", "unit": "mg/kg"}, {"measurement": "NOEC", "setting": "Bibionidae", "value": 0.0032, "unit": "mg/L"}, {"measurement": "LC50", "setting": "Lepomis macrochirus", "value": 0.18, "unit": "µg/mL"}, {"measurement": "NOEC", "setting": "Hypoaspis aculeifer", "value": 10.4, "unit": "mg/kg"}, {"measurement": "LC10", "setting": "Anas platyrhynchos [2]", "value": 0.64, "unit": "mg/kg-day"}]}]}
